Values joined by “and” are separate entries in the source; they are usually repeats but may differ in a detail not shown here. Equal entries are not always repeated. Toxic doses and inconclusive results are not listed.
System: L1210 leukemia ip in BDF1 mice, survival T/C
Test: NCI In Vivo Anticancer Drug Screen. Data for tumor model L1210 Leukemia (intraperitoneal) in B6D2F1 (BDF1) mice
Details: higher = longer survival
Outline: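 Ratio derived from survival: compound-dosed mice over vehicle-dosed mice, all bearing a transplantable tumor.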

[1] = endpoint: mean survival time, dose: 100.0 mg/kg/injection, schedule: Q04DX003 (ip), vehicle: Klucel (hydroxypropylcellulose) (HPC)
[2] = endpoint: mean survival time, dose: 100.0 mg/kg/injection, schedule: Q04DX003 (ip), vehicle: saline with Tween-80
[3] = endpoint: mean survival time, dose: 100.0 mg/kg/injection, schedule: Q01DX009 (ip), vehicle: Klucel (hydroxypropylcellulose) (HPC)
[4] = endpoint: mean survival time, dose: 200.0 mg/kg/injection, schedule: Q01DX009 (ip), vehicle: Klucel (hydroxypropylcellulose) (HPC)
[5] = endpoint: mean survival time, dose: 400.0 mg/kg/injection, schedule: Q01DX009 (ip), vehicle: Klucel (hydroxypropylcellulose) (HPC)

COC(=O)Nc1nc2ccc(C(=O)c3cccs3)cc2[nH]1
T/C (endpoint: mean survival time, dose: 10.0 mg/kg/injection, schedule: Q01DX009 (ip), vehicle: saline with Tween-80): 102 % of control | T/C (endpoint: mean survival time, dose: 10.0 mg/kg/injection, schedule: Q04DX003 (ip), vehicle: Klucel (hydroxypropylcellulose) (HPC)): 98 % of control | T/C (endpoint: mean survival time, dose: 20.0 mg/kg/injection, schedule: Q01DX009 (ip), vehicle: saline with Tween-80): 118 % of control | T/C (endpoint: mean survival time, dose: 20.0 mg/kg/injection, schedule: Q04DX003 (ip), vehicle: Klucel (hydroxypropylcellulose) (HPC)): 101 % of control | T/C (endpoint: mean survival time, dose: 40.0 mg/kg/injection, schedule: Q04DX003 (ip), vehicle: Klucel (hydroxypropylcellulose) (HPC)): 107 % of control | T/C (endpoint: mean survival time, dose: 50.0 mg/kg/injection, schedule: Q04DX003 (ip), vehicle: Klucel (hydroxypropylcellulose) (HPC)): 108 % of control and 111 % of control | T/C (endpoint: mean survival time, dose: 50.0 mg/kg/injection, schedule: Q04DX003 (ip), vehicle: saline with Tween-80): 111 % of control | T/C (endpoint: mean survival time, dose: 70.0 mg/kg/injection, schedule: Q04DX003 (ip), vehicle: other): 157 % of control | T/C (endpoint: mean survival time, dose: 75.0 mg/kg/injection, schedule: Q04DX003 (ip), vehicle: Klucel (hydroxypropylcellulose) (HPC)): 111 % of control and 121 % of control | T/C (endpoint: mean survival time, dose: 75.0 mg/kg/injection, schedule: Q04DX003 (ip), vehicle: other): 117 % of control and 183 % of control and 210 % of control | T/C (endpoint: mean survival time, dose: 80.0 mg/kg/injection, schedule: Q04DX003 (ip), vehicle: Klucel (hydroxypropylcellulose) (HPC)): 94 % of control | T/C (endpoint: mean survival time, dose: 80.0 mg/kg/injection, schedule: Q04DX003 (ip), vehicle: other): 153 % of control | T/C (endpoint: mean survival time, dose: 100.0 mg/kg/injection, schedule: Q01DX009 (oral), vehicle: saline with Tween-80): 94 % of control | T/C [1]: 115 % of control | T/C (endpoint: mean survival time, dose: 100.0 mg/kg/injection, schedule: Q04DX003 (ip), vehicle: other): 114 % of control and 115 % of control and 89 % of control | T/C [2]: 155 % of control and 170 % of control | T/C (endpoint: mean survival time, dose: 150.0 mg/kg/injection, schedule: Q04DX003 (ip), vehicle: other): 104 % of control | T/C (endpoint: mean survival time, dose: 160.0 mg/kg/injection, schedule: Q04DX003 (ip), vehicle: Klucel (hydroxypropylcellulose) (HPC)): 113 % of control | T/C (endpoint: mean survival time, dose: 200.0 mg/kg/injection, schedule: Q01DX009 (oral), vehicle: saline with Tween-80): 96 % of control | T/C (endpoint: mean survival time, dose: 200.0 mg/kg/injection, schedule: Q04DX003 (oral), vehicle: saline with Tween-80): 104 % of control | T/C (endpoint: mean survival time, dose: 400.0 mg/kg/injection, schedule: Q01DX009 (oral), vehicle: saline with Tween-80): 100 % of control | T/C (endpoint: mean survival time, dose: 400.0 mg/kg/injection, schedule: Q04DX003 (oral), vehicle: saline with Tween-80): 97 % of control | T/C (endpoint: mean survival time, dose: 600.0 mg/kg/injection, schedule: Q04DX003 (oral), vehicle: saline with Tween-80): 104 % of control | T/C (endpoint: mean survival time, dose: 800.0 mg/kg/injection, schedule: Q04DX003 (oral), vehicle: saline with Tween-80): 89 % of control | T/C (endpoint: mean survival time, dose: 1600.0 mg/kg/injection, schedule: Q04DX003 (oral), vehicle: saline with Tween-80): 104 % of control | T/C (endpoint: median survival time, dose: 5.0 mg/kg/injection, schedule: Q01DX009 (ip), vehicle: other): 101 % of control | T/C (endpoint: median survival time, dose: 7.5 mg/kg/injection, schedule: Q03HX016 (ip), vehicle: other): 158 % of control | T/C (endpoint: median survival time, dose: 7.5 mg/kg/injection, schedule: Q03HX024 (ip), vehicle: other): 164 % of control | T/C (endpoint: median survival time, dose: 10.0 mg/kg/injection, schedule: Q01DX009 (ip), vehicle: other): 117 % of control and 120 % of control | T/C (endpoint: median survival time, dose: 10.0 mg/kg/injection, schedule: Q03HX016 (ip), vehicle: other): 158 % of control | T/C (endpoint: median survival time, dose: 15.0 mg/kg/injection, schedule: Q03HX008 (ip), vehicle: other): 177 % of control | T/C (endpoint: median survival time, dose: 15.0 mg/kg/injection, schedule: Q03HX024 (ip), vehicle: other): 88 % of control | T/C (endpoint: median survival time, dose: 20.0 mg/kg/injection, schedule: Q01DX005 (ip), vehicle: other): 151 % of control | T/C (endpoint: median survival time, dose: 20.0 mg/kg/injection, schedule: Q01DX009 (ip), vehicle: other): 121 % of control | T/C (endpoint: median survival time, dose: 20.0 mg/kg/injection, schedule: Q08HX009 (ip), vehicle: other): 119 % of control | T/C (endpoint: median survival time, dose: 30.0 mg/kg/injection, schedule: Q01DX005 (ip), vehicle: other): 153 % of control | T/C (endpoint: median survival time, dose: 30.0 mg/kg/injection, schedule: Q01DX009 (ip), vehicle: other): 157 % of control | T/C (endpoint: median survival time, dose: 35.0 mg/kg/injection, schedule: Q04DX003 (ip), vehicle: Klucel (hydroxypropylcellulose) (HPC)): 119 % of control | T/C (endpoint: median survival time, dose: 35.0 mg/kg/injection, schedule: Q04DX003 (ip), vehicle: other): 123 % of control | T/C (endpoint: median survival time, dose: 40.0 mg/kg/injection, schedule: Q04DX003 (ip), vehicle: other): 104 % of control | T/C (endpoint: median survival time, dose: 50.0 mg/kg/injection, schedule: Q01DX005 (ip), vehicle: other): 86 % of control | T/C (endpoint: median survival time, dose: 50.0 mg/kg/injection, schedule: Q01DX009 (ip), vehicle: other): 103 % of control | T/C (endpoint: median survival time, dose: 50.0 mg/kg/injection, schedule: Q04DX003 (ip), vehicle: Klucel (hydroxypropylcellulose) (HPC)): 119 % of control | T/C (endpoint: median survival time, dose: 70.0 mg/kg/injection, schedule: Q04DX003 (ip), vehicle: Klucel (hydroxypropylcellulose) (HPC)): 119 % of control | T/C (endpoint: median survival time, dose: 75.0 mg/kg/injection, schedule: Q04DX003 (oral), vehicle: other): 101 % of control | T/C (endpoint: median survival time, dose: 80.0 mg/kg/injection, schedule: Q01DX001 (ip), vehicle: other): 157 % of control | T/C (endpoint: median survival time, dose: 80.0 mg/kg/injection, schedule: Q08DX002 (ip), vehicle: other): 182 % of control | T/C (endpoint: median survival time, dose: 90.0 mg/kg/injection, schedule: Q04DX003 (ip), vehicle: other): 167 % of control | T/C (endpoint: median survival time, dose: 100.0 mg/kg/injection, schedule: Q01DX001 (ip), vehicle: other): 151 % of control | T/C (endpoint: median survival time, dose: 100.0 mg/kg/injection, schedule: Q01DX009 (oral), vehicle: other): 102 % of control | T/C (endpoint: median survival time, dose: 100.0 mg/kg/injection, schedule: Q04DX003 (iv), vehicle: other): 101 % of control | T/C (endpoint: median survival time, dose: 130.0 mg/kg/injection, schedule: Q01DX001 (ip), vehicle: other): 155 % of control | T/C (endpoint: median survival time, dose: 140.0 mg/kg/injection, schedule: Q08DX002 (ip), vehicle: other): 112 % of control | T/C (endpoint: median survival time, dose: 150.0 mg/kg/injection, schedule: Q04DX003 (oral), vehicle: other): 119 % of control | T/C (endpoint: median survival time, dose: 160.0 mg/kg/injection, schedule: Q08DX002 (ip), vehicle: other): 153 % of control | T/C (endpoint: median survival time, dose: 200.0 mg/kg/injection, schedule: Q01DX009 (oral), vehicle: other): 103 % of control | T/C (endpoint: median survival time, dose: 300.0 mg/kg/injection, schedule: Q01DX009 (oral), vehicle: other): 109 % of control | T/C (endpoint: median survival time, dose: 300.0 mg/kg/injection, schedule: Q04DX003 (oral), vehicle: other): 98 % of control | T/C (endpoint: median survival time, dose: 400.0 mg/kg/injection, schedule: Q01DX009 (oral), vehicle: other): 108 % of control | T/C (endpoint: median survival time, dose: 400.0 mg/kg/injection, schedule: Q04DX003 (oral), vehicle: other): 102 % of control | T/C (endpoint: median survival time, dose: 500.0 mg/kg/injection, schedule: Q04DX003 (oral), vehicle: other): 97 % of control | T/C (endpoint: median survival time, dose: 600.0 mg/kg/injection, schedule: Q04DX003 (oral), vehicle: other): 104 % of control

CCOc1ccc(/C=C\C(=O)O)cc1
T/C [3]: 97 % of control | T/C [4]: 102 % of control | T/C [5]: 107 % of control

O=[N+]([O-])c1ccccc1S(=O)(=O)C1CC1c1ccccc1 (stereo unspecified)
T/C (endpoint: mean survival time, dose: 100.0 mg/kg/injection, schedule: Q01DX001 (ip), vehicle: saline): 109 % of control | T/C (endpoint: mean survival time, dose: 200.0 mg/kg/injection, schedule: Q01DX001 (ip), vehicle: saline): 102 % of control | T/C (endpoint: mean survival time, dose: 400.0 mg/kg/injection, schedule: Q01DX001 (ip), vehicle: saline): 103 % of control

CCCCOC(=O)CCCCC(=O)OCCCC
T/C [3]: 104 % of control | T/C [4]: 100 % of control | T/C [5]: 95 % of control

CNC(CCc1ccccc1)C(=O)O (stereo unspecified)
T/C (endpoint: mean survival time, dose: 100.0 mg/kg/injection, schedule: Q01DX009 (ip), vehicle: saline sonified): 98 % of control | T/C [2]: 100 % of control | T/C (endpoint: mean survival time, dose: 200.0 mg/kg/injection, schedule: Q01DX009 (ip), vehicle: saline sonified): 101 % of control | T/C (endpoint: mean survival time, dose: 200.0 mg/kg/injection, schedule: Q04DX003 (ip), vehicle: saline with Tween-80): 99 % of control | T/C (endpoint: mean survival time, dose: 400.0 mg/kg/injection, schedule: Q01DX009 (ip), vehicle: saline sonified): 93 % of control | T/C (endpoint: mean survival time, dose: 400.0 mg/kg/injection, schedule: Q04DX003 (ip), vehicle: saline with Tween-80): 99 % of control

COc1cc(N=CN(C)C)cc(OC)c1OC
T/C [3]: 101 % of control | T/C [1]: 97 % of control | T/C [4]: 103 % of control | T/C (endpoint: mean survival time, dose: 200.0 mg/kg/injection, schedule: Q04DX003 (ip), vehicle: Klucel (hydroxypropylcellulose) (HPC)): 97 % of control | T/C [5]: 103 % of control | T/C (endpoint: mean survival time, dose: 400.0 mg/kg/injection, schedule: Q04DX003 (ip), vehicle: Klucel (hydroxypropylcellulose) (HPC)): 93 % of control

O=[N+]([O-])c1ccc(C2CCCCC2)cc1
T/C (endpoint: mean survival time, dose: 25.0 mg/kg/injection, schedule: Q04DX002 (ip), vehicle: Klucel (hydroxypropylcellulose) (HPC)): 109 % of control | T/C (endpoint: mean survival time, dose: 50.0 mg/kg/injection, schedule: Q04DX002 (ip), vehicle: Klucel (hydroxypropylcellulose) (HPC)): 109 % of control | T/C (endpoint: mean survival time, dose: 100.0 mg/kg/injection, schedule: Q04DX002 (ip), vehicle: Klucel (hydroxypropylcellulose) (HPC)): 102 % of control

From PubChem BioAssay AID248 (DTP/NCI, 2004)
